System: p53-dependent luciferase reporter in U2OS cells
Test: p53-dependent luciferase reporter activation
Type: cell-based
Conditions: U2OS cells stably expressing p53-dependent luciferase reporter, 5 μM

With COc1ccc(C2=N[C@@H](c3ccc(Cl)cc3)[C@@H](c3ccc(Cl)cc3)N2C(=O)N2CCNC(=O)C2)c(OC(C)C)c1 [Nutlin-3, nutlin-3] the “increase in luciferase activation” value was 4 fold.

From paper PMC3057119 (Bioorganic & medicinal chemistry letters, 2011)
